Data on 29 compounds can be found in ChEMBL document CHEMBL3232827, “Synthesis of substituted pyrimidines as corticotropin releasing factor (CRF) receptor ligands” (Eur J Med Chem, 2014).

The first experiment has as its target T1, Corticotropin-releasing factor receptor 1 (Homo sapiens) (UniProt P34998).
T1 sequence (whole entry): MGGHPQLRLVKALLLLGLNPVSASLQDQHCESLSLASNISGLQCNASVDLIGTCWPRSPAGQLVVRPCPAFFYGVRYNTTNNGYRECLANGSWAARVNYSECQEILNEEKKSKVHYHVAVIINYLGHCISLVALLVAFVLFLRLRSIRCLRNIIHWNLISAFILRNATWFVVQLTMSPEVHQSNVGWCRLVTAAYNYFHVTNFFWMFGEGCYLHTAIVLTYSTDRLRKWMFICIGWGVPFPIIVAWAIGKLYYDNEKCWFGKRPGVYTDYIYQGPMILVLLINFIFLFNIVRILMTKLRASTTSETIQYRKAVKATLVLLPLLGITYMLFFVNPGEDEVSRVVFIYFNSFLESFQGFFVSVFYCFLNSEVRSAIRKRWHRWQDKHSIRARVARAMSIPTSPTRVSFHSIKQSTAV
Description: (§1) Displacement of [125I]Tyr0sauvagine from human CRF1 receptor expressed in HEK293 cell membrane after 120 mins by gamma scintillation counting analysis. It counts as cell membranes.
On to `CCCN(CCC)c1nc(C)nc(Nc2c(C)cc(C)cc2C)c1SCC`, for which the inhibition (commonly the drop in the measured response relative to a control, in per cent) was “Dose-dependent effect”.

With `COCCN(CCOC)c1nc(C)nc(Nc2c(C)cc(C)cc2C)c1SC`, the inhibition entry is “Dose-dependent effect”.

Consider `CCSc1c(Nc2c(C)cc(C)cc2C)nc(C)nc1N(CCOC)CCOC`, for which the inhibition result was “Dose-dependent effect”.

In the case of `CCCN(CC1CC1)c1nc(C)nc(Nc2c(C)cc(C)cc2C)c1SCC`, the inhibition entry is “Dose-dependent effect”.

For a further experiment, the target named is T2, Corticotropin-releasing factor receptor 1 (Homo sapiens, UniProt P34998).
T2 sequence (P34998 whole entry): T1 sequence (whole entry)
Described as §1. The experiment is classed as cell membranes.
On to `CCCN(CCC)c1nc(C)nc(Nc2c(C)cc(C)cc2C)c1SCC`, for which the IC50 (usually the concentration that inhibits the measured activity by half) is 537 nM.

For `COCCN(CCOC)c1nc(C)nc(Nc2c(C)cc(C)cc2C)c1SC`, the IC50 is 275 nM.

For the compound `CCCCN(CC)c1nc(C)nc2c1c(C)c(C)n2-c1c(C)cc(C)cc1C` [ANTALARMIN], the IC50 was 18.6 nM.

In turn, `CCSc1c(Nc2c(C)cc(C)cc2C)nc(C)nc1N(CCOC)CCOC` gave an IC50 of 589 nM.

In turn, `CCCN(CC1CC1)c1nc(C)nc(Nc2c(C)cc(C)cc2C)c1SCC` had an IC50 of 245 nM.

The next experiment addresses T1, Corticotropin-releasing factor receptor 1 (Homo sapiens). Kind of experiment: Displacement of [125I]Tyr0sauvagine from human CRF1 receptor expressed in HEK293 cell membrane at 500 nM after 120 mins by gamma scintillation counting analysis. It counts as cell membranes. On the technique in general: Loss of bound radioactivity is the signal in a displacement assay; it reports binding, not function.
Compound `COCCN(CCOC)c1ncnc(Nc2c(C)cc(C)cc2C)c1SC` gave an inhibition of under 50%.

The compound `CCCN(CC1CC1)c1nc(C)nc(Nc2ccc(C(C)C)cc2Br)c1SCC` gave an inhibition of under 50%.

`CCCCN(CC)c1ncnc(Nc2c(C)cc(C)cc2C)c1SCC` yielded an inhibition of under 50%.

As for `CCN(CC)c1nc(C)nc(Nc2ccc(C(C)C)cc2Br)c1SC`, the inhibition was under 50%.

`CCCCN(CC)c1nc(C)nc(Nc2ccc(C(C)C)cc2Br)c1SCC` had an inhibition of under 50%.

`CCCN(CC1CC1)c1nc(C)nc(Nc2ccc(C(C)C)cc2Br)c1SC` gave an inhibition of under 50%.

In turn, `CCCCN(CC)c1nc(C)nc(Nc2c(C)cc(C)cc2C)c1SCC` had an inhibition of under 50%.

Compound `CCCCN(CC)c1nc(C)nc(Nc2ccc(C(C)C)cc2Br)c1SC` gave an inhibition of under 50%.

Compound `CCCN(CCC)c1nc(C)nc(Nc2ccc(C(C)C)cc2Br)c1SC` had an inhibition of under 50%.

Turning to `CCCN(CCC)c1nc(C)nc(Nc2ccc(C(C)C)cc2Br)c1SCC`, the inhibition was under 50%.

`CCN(CC)c1nc(C)nc(Nc2c(C)cc(C)cc2C)c1SC`: the inhibition was under 50%.

In turn, `COCCN(CCOC)c1nc(C)nc(Nc2ccc(C(C)C)cc2Br)c1SC` yielded an inhibition of under 50%.

In turn, `CCCN(CCC)c1ncnc(Nc2c(C)cc(C)cc2C)c1SCC` returned an inhibition of under 50%.

The compound `CCCCN(CC)c1nc(C)nc(Nc2c(C)cc(C)cc2C)c1SC` came in with an inhibition of under 50%.

On to `CCSc1c(Nc2ccc(C(C)C)cc2Br)nc(C)nc1N(CC)CC`, for which the inhibition is under 50%.

The compound `CCSc1c(Nc2ccc(C(C)C)cc2Br)nc(C)nc1N(CCOC)CCOC` gave an inhibition of under 50%.

`CCCN(CCC)c1nc(C)nc(Nc2c(C)cc(C)cc2C)c1SC`: the inhibition is under 50%.

Compound `CCCN(CC1CC1)c1nc(C)nc(Nc2c(C)cc(C)cc2C)c1SC` had an inhibition of under 50%.

The compound `CCSc1c(Nc2c(C)cc(C)cc2C)ncnc1N(CCOC)CCOC` displayed an inhibition of under 50%.

In turn, `CCCCN(CC)c1ncnc(Nc2c(C)cc(C)cc2C)c1SC` displayed an inhibition of under 50%.

`CCSc1c(Nc2c(C)cc(C)cc2C)ncnc1N(CC)CC` displayed an inhibition of under 50%.

`CCCN(CCC)c1ncnc(Nc2c(C)cc(C)cc2C)c1SC`: the inhibition was under 50%.

On to `CCCN(CC1CC1)c1ncnc(Nc2c(C)cc(C)cc2C)c1SC`, for which the inhibition was under 50%.

With `CCSc1c(Nc2c(C)cc(C)cc2C)nc(C)nc1N(CC)CC`, the inhibition was under 50%.
